We go through four compounds from patent US7893109B2, “N,N-dihalogenated amino acids and derivatives” (Novabay Pharmaceuticals, Inc., priority 2003, dated 2011).

One may read the IC50 as the concentration at which inhibition is half-maximal. Read a high IC50 as lower potency.

The nature of one data set: in vitro. The conditions noted are these: human, pH 3.5. As to the method: (§1) Cytotoxicity was assessed by a […] assay system, initially described by Scudiero et al., using 3′-(phenylamino-carbonyl)-3,4-tetrazolium-bis(4-methoxy-6-nitro) benzene sulfonic acid hydrate (XTT), ProCheck™ cell viability assay (Evaluation of a soluble tetrazolium/formazan assay for cell growth and drug sensitivity in culture using human and other tumor cell lines described by Scudiero D A, Shoemaker R A H, Paul K D, Monks A, Tierney S, Nofziger T H, Currens M J, Seniff D, Boyd M R. Cancer Res. 1988 Sep. 1; 48(17):4827-33). Similar approaches for determining the cell viability are used by other investigators. Three cell types were used: […] (L929), primary human skin fibroblast and primary human keratinocyte cells cultured in Dulbecco Modified Eagle's Medium and Keratinocyte defined medium with corresponding growth factors plus antibiotics. Cells were trypsinized and counted under the microscope and seeded at 1000-to-2000 cells per well of a flat-bottom 96-well plate. Cells were allowed to grow over-night at 37° C. Next day, tissue culture media was removed and cells were rinsed with fresh media 1× and then left in 50 μL of tissue culture media. Test articles were prepared as 2-fold dilutions and 200 μL was added into each set of 4-wells (total volume per well=250 μL). Cells were exposed to test articles for 60 min at room temperature. Immediately after the exposed time, test article from each well was removed and cells were fed with 250 μL of fresh media. Plates were incubated at 37° C. for 18-20 hours. The following day media was removed again and replaced with 100 μL/well of fresh media containing 10/100 μL XTT-reagent. Cells were incubated under growth conditions (5% CO2 at 37° C. humidified incubator), protected from light, until color development was achieved. Absorbance was read at 450 nm with reference wavelength at 750 nm using Molecular Device ThermoMax Plate reader, blanking the plate on the medium-only assay blank wells. Untreated cells receiving XTT reagents-only served as positive cell proliferation control.

Data set [1] deals with Primary Human Skin Fibroblasts. Kind of data set: XTT cytotoxicity assay, primary human skin fibroblasts. Conditions: for cell inhibitory concentration toxicity index (CCI50 / IC50), 50% of cells still alive: Primary Human Skin Fibroblasts, XTT Assay, 60 min exposure. As to the method:
as §1

Data set [2] has as its system Escherichia coli (ATCC 11229). The data set can be described thus: Bactericidal activity (MBC / effective antimicrobial concentration). The format is cell-based. As to the method:
To determine the bactericidal activity, we used Escherichia coli (ATCC 11229). The bacterial culture was diluted in sterile saline to prepare inocula. Various test articles were transferred to individual tubes already containing 1.0×10^5 to 2.0×10^5 Colony Forming Units (CFU)/mL bacteria and mixed by gentle vortexing and then incubated at 37° C. for 1 or 24 hours. In an attempt to mimic as far as possible the conditions, which could be produced in vivo if the test articles were used as antiseptics, bacterial plating in a Petri dish was performed immediately after the designated exposure time without the addition of a neutralizer, and independently with addition of neutralizer (as control). Thus, 0.1 mL was removed after 1 or 24 hours exposure times and plated. Plates were incubated at 37° C., and the numbers of bacteria were counted by direct colony count to numerate the surviving bacteria as CFU/mL. Positive growth controls were made with sterile 0.9% saline. All test articles were tested three times.

The nature of data set [3]: Storage stability of N,N-dichlorotaurine solution in a vial in a refrigerator. The format is physicochemical. Conditions: solution in a vial stored in a refrigerator; three months. As to the method: The stability of a solution of N,N-dihaloamino acids and their derivatives permits the use of different forms of packaging that would be practical for use by patients. The solution may be packaged in several single-use 30 ml amber glass bottles with Teflon-lined screw caps and sealed with tape to ensure gas tightness. In one aspect, the same solution may be packaged in a 250 ml amber glass bottle or in a 250 ml non-reactive plastic bottle. However, up to 5 liter bottles may be used, because such larger volumes are practical for treatment of burns. Storage in these receptacles ensures long-term stability required for the uses of the compositions described herein in detail. […] Additionally, packaging may include a dual chamber system where component A is mixed with component B to form the final product, N,N-dihaloamino acid or its derivatives.

The format of data set [4] is physicochemical. From the text: N,N-dichlorotaurine can be identified and quantitatively determined by UV spectroscopy.
Data set [5] is described as follows: Volatility test, tightly vs loosely capped bottles. Type of data set: physicochemical. Conditions: 1.47 mM in 0.9% saline at pH 3.5; 4 weeks at room temperature. As to the method:
NNDCT is not volatile. A solution of 1.47 mM in 0.9% saline at pH 3.5 was filled in two glass bottles. One bottle was capped tightly and another was capped loosely.

The nature of data set [6]: UV-vis spectrum and concentration of NNDCT solutions at pH 3.0 to 5.0. The format is physicochemical. The conditions noted are these: 1.49 mM; pH range from 3.0 to 5.0. As to the method: The spectra and the concentrations of the solutions were measured on the UV-vis spectrometer.
Add 8.8 g NaCl, 2 ml of 1.0 M HCl, and 0.278 g of taurine into a 1000-ml volumetric flask, followed by adding about 800 ml of deionized water into the flask. Shake the flask to dissolve NaCl and taurine powders. Then add […] of 0.15M of the NaOCl solution into the flask. Fill the flask up to the mark with deionized water. Stir the solution with a magnetic stirring bar for 5 minutes. The concentration and the pH of the resulting solution were measured on a UV-vis spectrometer and a freshly calibrated Beckman pH meter. This solution has a concentration of 1.49 mM and a pH value of 3.85. […] The final pH of this solution is 3.0. […] The final pH of this solution is 4.85.
Solutions with varying pH values were prepared in a similar manner within the pH range of 3 to 5. All solutions show stability if properly stored as shown by their UV spectra.

The conditions of data set [7]: pH 3.5.
For data set [8] the following is noted: pH=1.88; after 100 hours; cited from earlier work.

Converted amounts (≈) assume the structure as drawn. Like-named read-outs stand apart in the source and are kept apart here.

On to `OCl` [HOCl, hypochlorous acid, reference compound], for which the IC50 at 60 min in “in vitro” worked out at 47 µg/mL (≈ 0.896 mM). In data set [1], the “cell inhibitory concentration toxicity index (CCI50 / IC50), 50% of cells still alive” value was found to be 800 µM.
On to `O=S(=O)(O)CCNCl` [NCT, N-chlorotaurine, reference compound], for which the “factor by which less antimicrobial than NNDCT” value in data set [2] (on an equal concentration basis) was 1000 fold.
For `O=S(=O)(O)CCN(Cl)Cl` [NNDCT, N,N-dichlorotaurine], in data set [2] (60 min exposure at 37° C.), the “bacterial killing efficiency of NNDCT at pH 3.5 compared to NCT at pH 9.5” value amounted to 1000 fold and the “bacterial killing efficiency of NNDCT at pH 3.5 over NNDCT at pH 5.0” value is reported as “about 300 fold”. Moreover, the “effectiveness against E. coli compared with HOCl” value in data set [2] (pH 3.5) was “better or as effective against E. coli as HOCl”. In “in vitro”, this compound had an IC50 at 60 min of 1440 µg/mL (≈ 7.43 mM). Further, the “range of cell toxicity relative to antimicrobial (μM) range” value in [1] (0.9% saline at pH 3.5, XTT assay, cell type not stated in Example 5) was determined as 1000 fold. Also, the “cell inhibitory concentration toxicity index (CCI50 / IC50), 50% of cells still alive” value in data set [1] amounted to 7000 µM. The “loss of N,N-dichlorotaurine” value in [3] is “no more than 13%”. Also, the solubility in water result in [4] is “very soluble”. In addition, the volatility result in data set [5] was “not volatile”. Besides, the “change of spectrum and concentration of solution with pH” value in [6] is on record as “did not change”. The compound further registered an NNDCT lost in data set [7] (4 weeks, refrigerator (4° C.), [NNDCT]initial=1.47 mM) of 5.4%. Also, the “order of stability at three temperatures” value in data set [7] was 4° C.>room temperature>40 °C. Moreover, in data set [8], the “loss of N,N-dichlorotaurine” value was “less than 5%”.
Regarding `OCl` [OCl^−, reference compound], the “cell inhibitory concentration toxicity index (CCI50 / IC50), 50% of cells still alive” value in data set [1] is 660 µM.
